Test results from patent publication US11304944B2, “MetAP2 inhibitors and methods of treating obesity” (SynDevRx, Inc., priority 2013, dated 2022).

Assays:
[1] = in combination with paclitaxel, dosed three times per week; cited from earlier work
[2] = tested on: DIO C57Bl6 mice; experiment: In vivo testing DIO C57Bl6 mice: weight changes, food consumption, body composition (Compound 16 vs TNP-470)
Experimental: C57Bl6 male mice (N=6) thirteen weeks old with an average of weight of 34 g were ad libitum fed TD.06414 a high fat diet composed of 60% Kcal from fat (Harlan diet). On study day 1 animals were randomized into groups so that the average weight of each group was 33.9 g. […] Animals were weighed every other day. Food consumption was measured weekly. On day 33 gross pathology was performed to determine body composition.

[3] = tested on: DIO C57Bl6 mice; experiment: Efficacy of various compounds in DIO mouse model (body weight versus time); format: in vivo; details: 2 mg/kg q4d sc; for BW change vs. vehicle: day 26
Experimental: On study day 1 animals were randomized into groups so that the average weight of the mice in each group was 47 g. The mice were treated with either phosphate buffered saline (vehicle), or compounds as listed in Table 19 dissolved in vehicle (dorsal, subcutaneous administration).

[4] = qod (Cmpd 16 1 mg/kg qod), Day 33

Row | Compound | MTD [1] [mg/m2] | Body Weight Day 33 ([2]; 0.5 mg/kg/day, qod, sc) [g] | B.W. [2, 4] [grams] | Epididymal Fat [2, 4] [grams] | Inguinal Fat [2, 4] [grams] | Liver [2, 4] [grams] | Retroperitoneal Fat [2, 4] [grams] | Total Fat [2, 4] [grams] | Group Avg. BW, Study Day 1 [3] [g] | Group Avg. BW, Study Day 7 [3] [g] | Group Avg. BW, Study Day 15 [3] [g] | Group Avg. BW, Study Day 21 [3] [g] | Group Avg. BW, Study Day 26 [3] [g] | BW change vs. vehicle [3] [%]
1 | CO[C@@H]1[C@H](OC(=O)NC(=O)CCl)CC[C@]2(CO2)[C@H]1[C@@]1(C)O[C@@H]1CC=C(C)C [TNP-470, chloroacetylcarbamoylfumagillol, reference compound] | 60 | 34.1 | 34.1 | 1.54 | 1.21 | 1.15 | 0.80 | 3.55 | – | – | – | – | – | –
2 | poly[HPMA-co-MA-GFLG-N-(cis-4-aminocyclohexyl)carbamoylfumagillol] [Compound cis-16] | – | – | – | – | – | – | – | – | 47.0 | 42.7 | 42.6 | 40.9 | 40.6 | −12.0
3 | poly[HPMA-co-MA-GFLG-NH-2-[(2-(2-aminoethoxy)ethoxy)ethyl]carbamoylfumagillol] [Compound bb] | – | – | – | – | – | – | – | – | 47.0 | 43.6 | 43.9 | 42.2 | 42.5 | −7.8
